{
  "source": "patent US11001591B2",
  "about": "“TRAF 6 inhibitors” (HELMHOLTZ ZENTRUM MUENCHEN—DEUTSCHES FORSCHUNGSZENTRUM FÜR …, priority 2016, dated 2021)",
  "key": {"[1]": {"target": "T1, MURF/TRIM63 (Homo sapiens, UniProt Q969Q1)", "T1 construct": "purchased Boston Biochem one of K-102, K-260, K-200B, K-220, K-240, K-270", "T1 sequence (Q969Q1 whole entry)": "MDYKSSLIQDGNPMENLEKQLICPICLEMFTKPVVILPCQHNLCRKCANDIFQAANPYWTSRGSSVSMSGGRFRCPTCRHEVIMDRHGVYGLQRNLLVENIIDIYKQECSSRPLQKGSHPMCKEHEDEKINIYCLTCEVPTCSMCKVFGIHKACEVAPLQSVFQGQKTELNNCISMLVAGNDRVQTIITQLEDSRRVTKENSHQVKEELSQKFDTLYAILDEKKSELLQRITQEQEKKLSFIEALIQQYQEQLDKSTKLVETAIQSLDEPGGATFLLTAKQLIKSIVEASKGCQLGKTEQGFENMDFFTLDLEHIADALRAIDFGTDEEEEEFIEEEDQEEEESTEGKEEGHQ", "test": "In vitro ubiquitination assay, MURF/TRIM63", "assay_type": "biochemical", "settings": "K48 chain formation", "method": "For analysis of clAP1, MDM2, TRIM63, RNF4, ITCH and E6AP mediated poly-ubiquitination, the respective ubiquitin ligase kit from Boston Biochem (K-102, K-260, K-200B, K-220, K-240 and K-270) was used. Here, reaction buffer, E1, E2 and E3 enzyme (and p53 substrate in case of MDM2) were mixed and pre-incubated with compound or DMSO for 5 minutes at room temperature before adding Mg^2+-ATP and mono-ubiquitin for reaction start. Ubiquitination was visualized by Western Blot analyses."}, "[2]": {"tested_on": "IKK kinase activity", "test": "IKK kinase assay in MEF cells", "assay_type": "cell-based, mouse", "method": "For MEF cells, 5.5×10^5 cells were seeded, then treated with compound for 6 hours and eventually stimulated with IL-1β or TNFα for 8 minutes. 1×10^6 Jurkat T-cells were treated with compound for 6 hours and finally stimulated with PMA (400 ng/ml) and lonomycin (600 ng/ml) for 8 minutes. After cell lysis in Co-IP lysis buffer (150 mM NaCl; 25 mM Hepes (pH 7.5); 0.2% NP-40; 1 mM Glycerol; 10 mM NaF; 8 mM β-Glycerophosphat; 1 mM DTT; 300 μM Sodium-vanadate; complete protease inhibitor), input samples were taken and the supernatant was then incubated with 6 μL IKKγ antibody FL-419 (Santa Cruz Biotechnology). Upon incubation with Protein-G-Sepharose beads (GE Healthcare), beads were washed in Co-IP wash buffer (150 mM NaCl; 25 mM Hepes (pH 7.5); 0.2% NP-40; 1 mM Glycerol) and transferred into kinase reaction buffer ([…] HEPES pH7.9; 10 mM MgCl2; 20 μM ATP; 20 mM β-Glycerophosphat; 200 μM Sodium-Vanadate; 1 mM DTT) supplemented with […] GST-IκBα (1-53) and 0.5 μL ^32P-γ-ATP. After 30 minutes incubation at 37° C., reaction was stopped and analyzed by autoradiography as well as Western Blot after separation on SDS-PAGE."}, "[3]": {"tested_on": "ICAM-1 and A20", "test": "mRNA expression of NF-κB target genes in MEF cells", "assay_type": "cell-based, mouse", "method": "For MEF cells, 1.2×10^5 cells per sample were seeded, treated with compound for 6 hours and stimulated with either IL-1β or TNFα for 60 minutes. Jurkat T-cells and primary mouse CD4^+ T-cells were seeded at 2×10^5 cells per sample, also treated with compound for 6 hours and stimulated with PMA/lonomycin for 3 hours. RNA was isolated according to the manufacturer's protocol of the Qiagen RNeasy Kit (MEF cells) or the STRATEC INVITRAP® SPIN UNIVERSAL RNA MINI KIT (Jurkat T-cells). The isolation of mRNA from […] white adipose tissue from DIO mice was performed using TRIzol® Reagent according to manufacturer's instruction. To clear the isolated RNA from genomic DNA, samples (up to 5 μg RNA) were treated with RQ1 RNase-Free DNaseI (Promega) as described in the technical manual. For the reverse transcription of RNA into cDNA, the DNaseI digested RNA samples were processed using the SuperScript III First Strand cDNA Synthesis System (Invitrogen/ThermoFisher Scientific) following the manufacturer's protocol. […] For quantification of cDNA in the samples, the LightCylcer480 (Roche) and the KAPA SYBR FAST qPCR Kit were used. For relative quantification, the ΔΔCp method first described by Pfaffl (Pfaffl, M. W., A new mathematical model for relative quantification in real-time RT-PCR. Nucleic Acids Res, 2001. 29(9): p. e45) was applied."}, "[4]": {"tested_on": "Caco-2 layer", "test": "Caco-2 assay", "assay_type": "in vitro ADME", "method": "(§1) All ADME (plasma stability, plasma protein binding, microsomal stability, Log D, Caco-2 assay, CYP450 inhibition and hERG predictor assay) as well as pharmacokinetic studies (Tmax, Cmax, AUC0-240 min, Mean Residence Time, Elimination half life, Elimination rate constant, Volume of Distribution and Clearance) of C25-140 (compound 3) were conducted by Bienta Enamine Biology Services of Bienta/Enamine Ltd."}, "[5]": {"tested_on": "CYP450", "test": "CYP450 inhibition", "assay_type": "in vitro ADME", "method": "as §1"}},
  "data": [
    {"compound": "Cc1nn(-c2ccc3nnc(C)n3n2)c(C)c1CCC(=O)N1CCC(Cc2ccccc2)CC1", "note": "[Compound 3, 1-(4-benzylpiperidin-1-yl)-3-(3,5-dimethyl-1-(3-methyl-[1,2,4]triazolo[4,3-b]pyridazin-6-yl)-1H-pyrazol-4-yl)propan-1-one]", "values": [
      {"measurement": "S5A ubiquitination by MURF/TRIM63", "setting": "[1]", "value": "not affected"},
      {"measurement": "IKK kinase activity after IL-1β stimulation", "setting": "[2]", "value": "decreased"},
      {"measurement": "TNFα induced phosphorylation of IκBα", "setting": "[2]; TNFα", "value": "also affected"},
      {"measurement": "IL-1β-induced target gene expression (ICAM-1, A20 mRNA)", "setting": "[3]", "value": "diminished"},
      {"measurement": "TNFα induced NF-κB target gene expression (ICAM-1, A20 mRNA)", "setting": "[3]; TNFα", "value": "also affected"},
      {"measurement": "Caco-2 permeability", "setting": "[4]", "value": "good penetration"},
      {"measurement": "CYP450 inhibition", "setting": "[5]", "value": "some inhibitory potential on selected CYPs"}
    ]}
  ]
}
